Measurements from US10189816B2, “Substituted pyridines as inhibitors of human immunodeficiency virus replication” (priority 2015, dated 2019).
Where two headings read alike, the source gives them in different places.

Test system: NL-RLuc virus
Test: Inhibition of HIV replication (NL-RLuc reporter virus in MT-2 cells, luciferase readout)
Format: cell-based
Details: Human immunodeficiency virus 1, MT2, 120 h
Outline: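 Antiviral EC50 came from luciferase signal after 5-day multicycle replication of NL-RLuc virus in MT-2 cells with serially diluted compound (RPMI 1640, 10% heat-inactivated FBS), fitted by the median effect equation over at least 2 experiments.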

`COc1ccc(CN2CCc3cc(-c4c(C)nc(C)c([C@H](OC(C)(C)C)C(=O)O)c4N4CCC(C)(C)CC4)ccc3C2)c(Cl)c1Cl` [Compound 91, (S)-2-(tert-butoxy)-2-(5-(2-(2,3-dichloro-4-methoxybenzyl)-1,2,3,4-tetrahydroisoquinolin-6-yl)-4-(4,4-dimethylpiperidin-1-yl)-2,6-dimethylpyridin-3-yl)acetic acid] was tested, and the EC50 (read-out: Activity) was less than 0.1 µM.

`COc1ccc(F)c(CN2CCc3cc(-c4c(C)nc(C)c([C@H](OC(C)(C)C)C(=O)O)c4N4CCC(C)(C)CC4)ccc3C2)c1F` [Compound 92, (S)-2-(tert-butoxy)-2-(5-(2-(2,6-difluoro-3-methoxybenzyl)-1,2,3,4-tetrahydroisoquinolin-6-yl)-4-(4,4-dimethylpiperidin-1-yl)-2,6-dimethylpyridin-3-yl)acetic acid] was tested, and the EC50 (read-out: Activity) was less than 0.1 µM.

`COc1cc(CN2CCc3cc(-c4c(C)nc(C)c([C@H](OC(C)(C)C)C(=O)O)c4N4CCC(C)(C)CC4)ccc3C2)c(F)cc1Cl` [Compound 93, (S)-2-(tert-butoxy)-2-(5-(2-(4-chloro-2-fluoro-5-methoxybenzyl)-1,2,3,4-tetrahydroisoquinolin-6-yl)-4-(4,4-dimethylpiperidin-1-yl)-2,6-dimethylpyridin-3-yl)acetic acid] was tested, and the EC50 (read-out: Activity) was less than 0.1 µM.

Work on `COc1cc(CN2CCc3cc(-c4c(C)nc(C)c([C@H](OC(C)(C)C)C(=O)O)c4N4CCC(C)(C)CC4)ccc3C2)c(F)cc1F` [Compound 94, (S)-2-(tert-butoxy)-2-(5-(2-(2,4-difluoro-5-methoxybenzyl)-1,2,3,4-tetrahydroisoquinolin-6-yl)-4-(4,4-dimethylpiperidin-1-yl)-2,6-dimethylpyridin-3-yl)acetic acid] yielded an EC50 (read-out: Activity) of less than 0.1 µM.

Compound `COc1c(F)cc(CN2CCc3cc(-c4c(C)nc(C)c([C@H](OC(C)(C)C)C(=O)O)c4N4CCC(C)(C)CC4)ccc3C2)cc1F` [Compound 95, (S)-2-(tert-butoxy)-2-(5-(2-(3,5-difluoro-4-methoxybenzyl)-1,2,3,4-tetrahydroisoquinolin-6-yl)-4-(4,4-dimethylpiperidin-1-yl)-2,6-dimethylpyridin-3-yl)acetic acid] has an EC50 (read-out: Activity) of less than 0.1 µM.

`Cc1nc(C)c([C@H](OC(C)(C)C)C(=O)O)c(N2CCC(C)(C)CC2)c1-c1ccc2c(c1)CCN(Cc1cc(F)cc(F)c1F)C2` [Compound 96, (S)-2-(tert-butoxy)-2-(4-(4,4-dimethylpiperidin-1-yl)-2,6-dimethyl-5-(2-(2,3,5-trifluorobenzyl)-1,2,3,4-tetrahydroisoquinolin-6-yl)pyridin-3-yl)acetic acid] showed an EC50 (read-out: Activity) of less than 0.1 µM and an EC50 (read-out: EC50 μM) of 0.003 µM.

With `COc1ccc(CN2CCc3cc(-c4c(C)nc(C)c([C@H](OC(C)(C)C)C(=O)O)c4N4CCC(C)(C)CC4)ccc3C2)cc1F` [Compound 97, (S)-2-(tert-butoxy)-2-(4-(4,4-dimethylpiperidin-1-yl)-5-(2-(3-fluoro-4-methoxybenzyl)-1,2,3,4-tetrahydroisoquinolin-6-yl)-2,6-dimethylpyridin-3-yl)acetic acid] the EC50 (read-out: Activity) was less than 0.1 µM.

`COc1c(CN2CCc3cc(-c4c(C)nc(C)c([C@H](OC(C)(C)C)C(=O)O)c4N4CCC(C)(C)CC4)ccc3C2)cccc1C(F)(F)F` [Compound 98, (S)-2-(tert-butoxy)-2-(4-(4,4-dimethylpiperidin-1-yl)-5-(2-(2-methoxy-3-(trifluoromethyl)benzyl)-1,2,3,4-tetrahydroisoquinolin-6-yl)-2,6-dimethylpyridin-3-yl)acetic acid] gave an EC50 (read-out: Activity) of less than 0.1 µM.

Work on `COc1ccc(Cl)cc1CN1CCc2cc(-c3c(C)nc(C)c([C@H](OC(C)(C)C)C(=O)O)c3N3CCC(C)(C)CC3)ccc2C1` [Compound 99, (S)-2-(tert-butoxy)-2-(5-(2-(5-chloro-2-methoxybenzyl)-1,2,3,4-tetrahydroisoquinolin-6-yl)-4-(4,4-dimethylpiperidin-1-yl)-2,6-dimethylpyridin-3-yl)acetic acid] yielded an EC50 (read-out: Activity) of less than 0.1 µM.

`COc1cc(Cl)cc(CN2CCc3cc(-c4c(C)nc(C)c([C@H](OC(C)(C)C)C(=O)O)c4N4CCC(C)(C)CC4)ccc3C2)c1` [Compound 100, (S)-2-(tert-butoxy)-2-(5-(2-(3-chloro-5-methoxybenzyl)-1,2,3,4-tetrahydroisoquinolin-6-yl)-4-(4,4-dimethylpiperidin-1-yl)-2,6-dimethylpyridin-3-yl)acetic acid] was tested, and the EC50 (read-out: Activity) was less than 0.1 µM.

In the case of `COc1cc(CN2CCc3cc(-c4c(C)nc(C)c([C@H](OC(C)(C)C)C(=O)O)c4N4CCC(C)(C)CC4)ccc3C2)ccc1F` [Compound 101, (S)-2-(tert-butoxy)-2-(4-(4,4-dimethylpiperidin-1-yl)-5-(2-(4-fluoro-3-methoxybenzyl)-1,2,3,4-tetrahydroisoquinolin-6-yl)-2,6-dimethylpyridin-3-yl)acetic acid], the EC50 (read-out: Activity) is reported as less than 0.1 µM.

`Cc1nc(C)c([C@H](OC(C)(C)C)C(=O)O)c(N2CCC(C)(C)CC2)c1-c1ccc2c(c1)CCN(Cc1ccc(OC(F)(F)F)cc1)C2` [Compound 102, (S)-2-(tert-butoxy)-2-(4-(4,4-dimethylpiperidin-1-yl)-2,6-dimethyl-5-(2-(4-(trifluoromethoxy)benzyl)-1,2,3,4-tetrahydroisoquinolin-6-yl)pyridin-3-yl)acetic acid] showed an EC50 (read-out: Activity) of less than 0.1 µM.

Compound `CCOc1cccc(CN2CCc3cc(-c4c(C)nc(C)c([C@H](OC(C)(C)C)C(=O)O)c4N4CCC(C)(C)CC4)ccc3C2)c1` [Compound 103, (S)-2-(tert-butoxy)-2-(4-(4,4-dimethylpiperidin-1-yl)-5-(2-(3-ethoxybenzyl)-1,2,3,4-tetrahydroisoquinolin-6-yl)-2,6-dimethylpyridin-3-yl)acetic acid] has an EC50 (read-out: Activity) of less than 0.1 µM and an EC50 (read-out: EC50 μM) of 0.012 µM.

`Cc1nc(C)c([C@H](OC(C)(C)C)C(=O)O)c(N2CCC(C)(C)CC2)c1-c1ccc2c(c1)CCN(Cc1ccc(OC(F)(F)F)c(Cl)c1)C2` [Compound 104, (S)-2-(tert-butoxy)-2-(5-(2-(3-chloro-4-(trifluoromethoxy)benzyl)-1,2,3,4-tetrahydroisoquinolin-6-yl)-4-(4,4-dimethylpiperidin-1-yl)-2,6-dimethylpyridin-3-yl)acetic acid] was tested, and the EC50 (read-out: Activity) was less than 0.1 µM.

`Cc1nc(C)c([C@H](OC(C)(C)C)C(=O)O)c(N2CCC(C)(C)CC2)c1-c1ccc2c(c1)CCN(Cc1ccc(OC(F)F)cc1F)C2` [Compound 105, (S)-2-(tert-butoxy)-2-(5-(2-(4-(difluoromethoxy)-2-fluorobenzyl)-1,2,3,4-tetrahydroisoquinolin-6-yl)-4-(4,4-dimethylpiperidin-1-yl)-2,6-dimethylpyridin-3-yl)acetic acid] showed an EC50 (read-out: Activity) of less than 0.1 µM.

With `COc1cc(F)c(CN2CCc3cc(-c4c(C)nc(C)c([C@H](OC(C)(C)C)C(=O)O)c4N4CCC(C)(C)CC4)ccc3C2)c(F)c1` [Compound 106, (S)-2-(tert-butoxy)-2-(5-(2-(2,6-difluoro-4-methoxybenzyl)-1,2,3,4-tetrahydroisoquinolin-6-yl)-4-(4,4-dimethylpiperidin-1-yl)-2,6-dimethylpyridin-3-yl)acetic acid] the EC50 (read-out: Activity) was less than 0.1 µM.

Compound `COc1cc(F)cc(F)c1CN1CCc2cc(-c3c(C)nc(C)c([C@H](OC(C)(C)C)C(=O)O)c3N3CCC(C)(C)CC3)ccc2C1` [Compound 107, (S)-2-(tert-butoxy)-2-(5-(2-(2,4-difluoro-6-methoxybenzyl)-1,2,3,4-tetrahydroisoquinolin-6-yl)-4-(4,4-dimethylpiperidin-1-yl)-2,6-dimethylpyridin-3-yl)acetic acid] has an EC50 (read-out: Activity) of less than 0.1 µM.

`Cc1nc(C)c([C@H](OC(C)(C)C)C(=O)O)c(N2CCC(C)(C)CC2)c1-c1ccc2c(c1)CCN(Cc1ccc(OC(F)(F)F)c(F)c1)C2` [Compound 108, (S)-2-(tert-butoxy)-2-(4-(4,4-dimethylpiperidin-1-yl)-5-(2-(3-fluoro-4-(trifluoromethoxy)benzyl)-1,2,3,4-tetrahydroisoquinolin-6-yl)-2,6-dimethylpyridin-3-yl)acetic acid] showed an EC50 (read-out: Activity) of less than 0.1 µM.

`COc1cc(C(F)(F)F)ccc1CN1CCc2cc(-c3c(C)nc(C)c([C@H](OC(C)(C)C)C(=O)O)c3N3CCC(C)(C)CC3)ccc2C1` [Compound 109, (S)-2-(tert-butoxy)-2-(4-(4,4-dimethylpiperidin-1-yl)-5-(2-(2-methoxy-4-(trifluoromethyl)benzyl)-1,2,3,4-tetrahydroisoquinolin-6-yl)-2,6-dimethylpyridin-3-yl)acetic acid] showed an EC50 (read-out: Activity) of less than 0.1 µM.

`Cc1nc(C)c([C@H](OC(C)(C)C)C(=O)O)c(N2CCC(C)(C)CC2)c1-c1ccc2c(c1)CCN(Cc1cccc(OC(F)(F)F)c1)C2` [Compound 110, (S)-2-(tert-butoxy)-2-(4-(4,4-dimethylpiperidin-1-yl)-2,6-dimethyl-5-(2-(3-(trifluoromethoxy)benzyl)-1,2,3,4-tetrahydroisoquinolin-6-yl)pyridin-3-yl)acetic acid] showed an EC50 (read-out: Activity) of less than 0.1 µM and an EC50 (read-out: EC50 μM) of 0.008 µM.

For `Cc1nc(C)c([C@H](OC(C)(C)C)C(=O)O)c(N2CCC(C)(C)CC2)c1-c1ccc2c(c1)CCN(Cc1cc(F)cc(OC(F)(F)F)c1)C2` [Compound 111, (S)-2-(tert-butoxy)-2-(4-(4,4-dimethylpiperidin-1-yl)-5-(2-(3-fluoro-5-(trifluoromethoxy)benzyl)-1,2,3,4-tetrahydroisoquinolin-6-yl)-2,6-dimethylpyridin-3-yl)acetic acid], the EC50 (read-out: Activity) was less than 0.1 µM.

Work on `COc1cc(CN2CCc3cc(-c4c(C)nc(C)c([C@H](OC(C)(C)C)C(=O)O)c4N4CCC(C)(C)CC4)ccc3C2)cc(C(F)(F)F)c1` [Compound 112, (S)-2-(tert-butoxy)-2-(4-(4,4-dimethylpiperidin-1-yl)-5-(2-(3-methoxy-5-(trifluoromethyl)benzyl)-1,2,3,4-tetrahydroisoquinolin-6-yl)-2,6-dimethylpyridin-3-yl)acetic acid] yielded an EC50 (read-out: Activity) of less than 0.1 µM.

For `Cc1nc(C)c([C@H](OC(C)(C)C)C(=O)O)c(N2CCC(C)(C)CC2)c1-c1ccc2c(c1)CCN(Cc1cc(Cl)cc(OC(F)(F)F)c1)C2` [Compound 113, (S)-2-(tert-butoxy)-2-(5-(2-(3-chloro-5-(trifluoromethoxy)benzyl)-1,2,3,4-tetrahydroisoquinolin-6-yl)-4-(4,4-dimethylpiperidin-1-yl)-2,6-dimethylpyridin-3-yl)acetic acid], the EC50 (read-out: Activity) was less than 0.1 µM.
